# In US20040067932A1 (priority 2002, published 2004):
# “Also recorded” adds a separate entry of the source. Where two headings read alike, the source gives them in different places.
# Assays:
# rA1 adenosine receptor = target: T1, rA1 adenosine receptor (Rattus norvegicus, UniProt P25099); assay: Binding affinity at rA1 adenosine receptor
# T1 sequence (P25099 1-326): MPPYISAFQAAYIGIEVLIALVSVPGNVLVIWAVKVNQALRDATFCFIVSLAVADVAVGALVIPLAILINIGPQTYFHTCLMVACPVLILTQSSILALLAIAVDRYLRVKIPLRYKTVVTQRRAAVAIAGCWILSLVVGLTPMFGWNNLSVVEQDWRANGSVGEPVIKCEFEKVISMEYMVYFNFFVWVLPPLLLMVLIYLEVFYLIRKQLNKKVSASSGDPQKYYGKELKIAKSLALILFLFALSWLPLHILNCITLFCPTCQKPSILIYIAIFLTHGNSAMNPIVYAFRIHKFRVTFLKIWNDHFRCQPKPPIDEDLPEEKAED
# [1] = tested on: human melanoma A375 cell line; assay: MTT growth inhibitory assay, A375; format: cell-based; details: for IC50: A-375, Human Melanoma A375, read-out: IC50 growth inhibition, agent used separately
# Method: (§5) One of the growth inhibitory assays is the MTT assay. Cells (1000-1500 cells/well) are seeded in a 96-well micro culture plate in a total volume of 100 μl/well. After overnight incubation in a humidified incubator at 37° C. with 5% CO2-95% air, chemotherapeutic drug solutions diluted with culture medium at various concentrations are added in the amount of 100 μl to each well. The plates are placed in a humidified incubator at 37° C. with 5% CO2-95% air for 7-10 days. The plates are then centrifuged briefly and 100 μl of the growth medium is removed. Cell cultures are incubated with 50 μl of MTT [3-(4,5-dimethylthiazol-2-yl)-2,5-diphenyl-tetrazolium bromide] reagent (1 mg/ml in Dulbecco's phosphate-buffered saline) for 4 hr at 37° C. The resultant purple formazan precipitate is solubilized with 200 μl of 0.04 N HCl in isopropanol. Absorbance is measured at a wavelength of 595 nm and at a reference wavelength of 655 nm using a Bio-Rad Model 3550 Microplate Reader. Preferably, all tests are run in duplicate for each dose level.
# (§6) The EZED50 computer program estimates the concentration of agent that inhibits cell growth by 50% as compared to the control cells. This is termed the IC50 and is determined by curve fitting test data using the following four logistic equation. [formula]
# (§7) Inhibitory assay testing is also used to determine enhanced therapeutic effects from combining A3 receptor antagonists with other tumor inhibiting agents. The inhibitory cell growth assays are run with and without selected concentrations of A3 receptor antagonists. An enhanced therapeutic effect is present when the IC50 of the tumor inhibiting agent is lower with the A3 receptor antagonist.
# (§8) Quantitatively, the enhancement factor (EF) is calculated by dividing the IC50 value of the tumor inhibiting agent for a tumor cell line by the IC50 value of the agent with A3 receptor antagonist for the same cell line: [formula]
# [2] = tested on: human colon carcinoma HT29 cell line; assay: MTT growth inhibitory assay, HT29; format: cell-based; details: for IC50: HT-29
# Method: as §5, §6, §7, §8
# [3] = tested on: human pancreatic cancer Panc-1; assay: MTT growth inhibitory assay, Panc-1; format: cell-based
# Method: as §5, §6, §7, §8
# [4] = tested on: human lung carcinoma SKMES; assay: MTT growth inhibitory assay, SKMES; format: cell-based
# Method: as §5, §6, §7, §8
# A375 melanoma cells = assay: Colony formation assay of A375 cells; format: cell-based, human
# Method: FIG. 2 illustrates colony formation assay of A375 cells. Cells were treated with different drugs and colonies were counted after 7 days. The values represent the mean ±SEM of four independent experiments. D=DMSO (control); T=paclitaxel, 0.75 ng/ml; M=MRE 3008F20, 10 μM; C=CI-IB-MECA, 10 μM; TM=paclitaxel plus MRE 3008F20; TC=paclitaxel plus CI-IB-MECA treated cells. *P<0.01 TM versus T. Analysis was by ANOVA followed by Dunnett's test.;
# Control plates received the same volume of DMSO alone. After 7 days of growth at 37° C. in humidified atmosphere containing 5% CO2, the cells were fixed with absolute methanol for 5′ and stained with 1/10 Giemsa/phosphate-buffered saline (PBS) staining solution for 10 minutes. Staining solution was removed and colonies of greater than 30 cells were scored as survivors. For each treatment, six individual wells were scored.
# Colony formation assay experiments were performed on A375 melanoma cells treated with increasing concentration of paclitaxel (0.25-75 ng/ml). A3 stimulation is achieved with the selective agonist CI-IB-MECA while A3 blockade is obtained with the selective antagonist MRE 3008F20. […] (FIG. 2)
# A375 cells [5] = assay: Flow cytometry (PI) G2/M accumulation and sub-G1 apoptosis, A375; format: cell-based, human; details: for EC50: Homo sapiens
# Method: (§1) A375 and NCTC2544 adherent cells were trypsinized, mixed with floating cells, washed with PBS and permeabilised in 70% (vol/vol) ethanol/PBS solution at 4° C. for at least 24 hours. Jurkat, HeL023 and PBMC cells were centrifuged for 10 minutes at 1000×g. The cell pellet was then resuspended and permeabilised in 70% (vol/vol) ethanol/PBS solution at 4° C. for at least 24 hours. The cells were washed with PBS and the DNA was stained with a PBS solution, containing 20 μg/ml of propidium iodide and 100 μg/ml of RNAse, at room temperature for 30 minutes. Cells were analysed by FACScan (Becton-Dickinson) and the content of DNA was evaluated by the Cell-LISYS program (Becton-Dickinson). Cell distribution among cell cycle phases and apoptotic cells was evaluated as previously described (Secchiero et al., 2001). Briefly, the cell cycle distribution is shown as the percentage of cells containing 2n (G1 phase), 4n (G2 and M phases), 4n>x>2n. DNA amount (S phase) judged by propidium iodide staining. The apoptotic population is the percentage of cells with DNA content lower than 2n.
# Cell proliferation and apoptosis are quantified by flow cytometer analysis after propidium-iodide (PI) DNA staining.
# HeL023 cells = assay: Flow cytometry (PI) G2/M accumulation and sub-G1 apoptosis, HeL023; format: cell-based, human
# Method: as §1
# (§2) To verify the role of A3 receptor antagonists on paclitaxel and vindesine mediated alteration of cell proliferation and apoptosis, testing was performed with additional cell lines. […] Experimental conditions are similar to those for the A375 cell testing.
# Jurkat cells = assay: Flow cytometry (PI) G2/M accumulation and sub-G1 apoptosis, Jurkat; format: cell-based, human
# Method: as §1, §2
# NCTC2544 cells = assay: Flow cytometry (PI) G2/M accumulation and sub-G1 apoptosis, NCTC2544; format: cell-based, human; details: NCTC 2544
# Method: as §1, §2
# [6] = target: T2, P-gp drug efflux activity in HeL023 cells (Homo sapiens, UniProt P08183); assay: Rhodamine 123 efflux assay, HeL023 cells; format: cell-based; details: Rh123 efflux, concentrations of Table 11 (MRE3008F20 10 μM)
# T2 construct: nearly all (100±1%) the cells expressing high level of functional P-gp; endogenous in cells; host or cells: HeL023 human erythroleukemia cells
# Method: (§3) 5×10^5 cells from each subline were loaded with 50 ng/ml of rhodamine 123 for 30 minutes at 37° C. in medium. The cells were washed and resuspended in dye-staining agent free medium for 3 hours at 37° C. to allow rhodamine 123 efflux. The cells were then washed twice and the fluorescence of intracellular rhodamine 123 were analysed with Flow cytometer (residual fluorescence FRES). The fluorescence was compared with loaded cells maintained at 4° C. to prevent drug export (maximal fluorescence FMAX). […] Cells from each subline that were not being exposed to rhodamine 123 were used as negative controls.
# (§4) Rhodamine 123 (Rh123) retention, a P-gp functional assay, was studied in all cell lines. This assay was performed by incubating cells with Rh123 and determining Rh123 accumulation by measuring its fluorescence. The maximum load of Rh123 (FMAX) was quantified at the end of treatment harvesting the cells and storing them at 4° C. to prevent any active Rh123 efflux . The P-gp drug efflux was allowed incubating Rh123-loaded cells in fresh new medium Rh123-free for 3 hours at 37° C. After this incubation, residual fluorescence (FRES) was measured and compared to FMAX.
# [7] = target: T3, P-gp drug efflux activity in A375 cells (Homo sapiens, UniProt P08183); assay: Rhodamine 123 efflux assay, A375 cells; format: cell-based
# T3 construct: endogenous in cells; host or cells: A375 human melanoma cells (ATCC)
# Method: as §3, §4
# A375 cells [8] = assay: Metabolic (MEK/ERK/p38MAPK) inhibitor signalling study by flow cytometry, A375; format: cell-based, human; details: U0126 30 μM; for prevention of MRE3008F20-induced accumulation in G2/M: MRE3008F20 10 μM
# [9] = 100 mg/m^2; cited from earlier work
# PBMC blasts = assay: Flow cytometry (PI) G2/M accumulation, PBMC blasts; format: cell-based; details: Homo sapiens, DMSO (no antagonist), read-out: vindesine EC50 (G2/M accumulation)
# Method: Cells are passaged two or three times weekly at a ratio between 1:5 and 1:10. Lymphocytes were isolated from buffy coats kindly provided by the Blood Bank of the University Hospital of Ferrara. Blood donated by healthy volunteers, after informed consent for research was obtained. Lymphocytes were isolated by density gradient centrifugation (Ficoll/Histopaque 1.077 g/ml). The cells are stimulated with purified phytohemoagglutinin (1 μg/ml) and expanded in RPMI medium added of interleukin 2 (20 Units/ml) and 10% fetal calf serum.
# Jurkat, HeL023 and PBMC cells were centrifuged for 10 minutes at 1000×g. The cell pellet was then resuspended and permeabilised in 70% (vol/vol) ethanol/PBS solution at 4° C. for at least 24 hours. The cells were washed with PBS and the DNA was stained with a PBS solution, containing 20 μg/ml of propidium iodide and 100 μg/ml of RNAse, at room temperature for 30 minutes. Cells were analysed by FACScan (Becton-Dickinson) and the content of DNA was evaluated by the Cell-LISYS program (Becton-Dickinson). Cell distribution among cell cycle phases and apoptotic cells was evaluated as previously described (Secchiero et al., 2001). Briefly, the cell cycle distribution is shown as the percentage of cells containing 2n (G1 phase), 4n (G2 and M phases), 4n>x>2n. DNA amount (S phase) judged by propidium iodide staining. […]
# [10] = Human Colon Carcinoma HT29, read-out: IC50 growth inhibition, agent used separately
# [11] = Human Pancreatic Cancer Panc-1, read-out: IC50 growth inhibition, agent used separately
# [12] = Human Lung Carcinoma SKMES, read-out: IC50 growth inhibition, agent used separately
# [13] = Homo sapiens, DMSO (no antagonist), read-out: vindesine EC50 (G2/M accumulation)
# T2 sequence (P08183 whole entry): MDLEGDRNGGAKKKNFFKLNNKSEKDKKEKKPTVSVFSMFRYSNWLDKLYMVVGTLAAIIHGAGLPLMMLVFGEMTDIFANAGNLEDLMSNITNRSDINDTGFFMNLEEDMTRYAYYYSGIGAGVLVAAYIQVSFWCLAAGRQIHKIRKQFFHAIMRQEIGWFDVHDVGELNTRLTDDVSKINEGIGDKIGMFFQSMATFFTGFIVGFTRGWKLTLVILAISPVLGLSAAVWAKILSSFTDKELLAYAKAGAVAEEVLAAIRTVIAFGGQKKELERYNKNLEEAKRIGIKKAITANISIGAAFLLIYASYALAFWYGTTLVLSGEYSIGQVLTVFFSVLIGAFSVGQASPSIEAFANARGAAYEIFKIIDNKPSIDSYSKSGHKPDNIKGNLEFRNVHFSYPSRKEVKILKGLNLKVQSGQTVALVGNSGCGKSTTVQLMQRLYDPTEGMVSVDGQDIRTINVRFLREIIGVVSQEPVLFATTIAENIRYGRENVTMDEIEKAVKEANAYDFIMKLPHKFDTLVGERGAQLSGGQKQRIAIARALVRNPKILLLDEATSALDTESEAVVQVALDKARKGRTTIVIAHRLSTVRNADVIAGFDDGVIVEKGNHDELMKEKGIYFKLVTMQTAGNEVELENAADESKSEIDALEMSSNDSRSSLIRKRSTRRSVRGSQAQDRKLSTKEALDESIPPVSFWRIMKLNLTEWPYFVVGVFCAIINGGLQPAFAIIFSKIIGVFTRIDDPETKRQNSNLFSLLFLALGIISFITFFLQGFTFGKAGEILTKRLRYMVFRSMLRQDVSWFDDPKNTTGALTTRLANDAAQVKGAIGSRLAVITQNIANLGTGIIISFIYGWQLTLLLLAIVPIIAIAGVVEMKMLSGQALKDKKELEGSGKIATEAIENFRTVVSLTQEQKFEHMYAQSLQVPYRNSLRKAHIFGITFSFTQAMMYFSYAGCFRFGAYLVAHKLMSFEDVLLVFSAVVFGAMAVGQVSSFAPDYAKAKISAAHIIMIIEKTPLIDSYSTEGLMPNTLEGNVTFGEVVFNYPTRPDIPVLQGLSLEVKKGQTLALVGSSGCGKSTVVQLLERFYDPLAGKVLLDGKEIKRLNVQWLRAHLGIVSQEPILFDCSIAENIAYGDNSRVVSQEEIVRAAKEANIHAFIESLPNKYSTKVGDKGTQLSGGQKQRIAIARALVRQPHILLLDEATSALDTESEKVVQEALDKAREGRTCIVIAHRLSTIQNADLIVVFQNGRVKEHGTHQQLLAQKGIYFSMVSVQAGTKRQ
# T3 sequence (P08183 whole entry): as above
smiles,measurement,setting,value
CCCn1cc2c(nc(NC(=O)Nc3ccc(OC)cc3)n3nc(-c4ccco4)nc23)n1 [MRE3008F20],Ki,rA1 adenosine receptor,> 10000 nM
same,Enhancement Factor for docetaxel,"[1]; A375, A3 antagonist 1 μg/ml",63.3
same,Enhancement Factor for paclitaxel,"[1]; A375, A3 antagonist 1 μg/ml",7.1
same,Enhancement Factor for docetaxel,"[1]; A375, A3 antagonist 3 μg/ml",6.9
same,Enhancement Factor for paclitaxel,"[1]; A375, A3 antagonist 3 μg/ml",6.4
same,Enhancement Factor for docetaxel,"[1]; A375, A3 antagonist 10 μg/ml",5.3
same,Enhancement Factor for paclitaxel,"[1]; A375, A3 antagonist 10 μg/ml, paclitaxel 0.0001-0.05 μg/ml",7.1
same,enhancement factor for paclitaxel at all three concentrations,"[1]; A375, A3 antagonist 1, 3 and 10 μg/ml",6.4-7.1
same,IC50,[1]; Homo sapiens,91300 ± 1500 ng/mL
same,inhibition at 10 µg/mL,"[1]; Homo sapiens, A-375, A375, 10 μg/ml, read-out: growth inhibition in the presence of A3 antagonist alone",30 to 45%
same,Enhancement Factor for docetaxel,"[2]; HT29, A3 antagonist 1 μg/ml",15.0
same,Enhancement Factor for doxorubicin,"[2]; HT29, A3 antagonist 1 μg/ml",1.6
same,Enhancement Factor for irinotecan HCl,"[2]; HT29, A3 antagonist 1 μg/ml",1.8
same,Enhancement Factor for paclitaxel,"[2]; HT29, A3 antagonist 1 μg/ml",2.9
same,IC50,[2]; [10],39400 ± 7700 ng/mL
same,IC50,[3]; [11],15800 ± 13500 ng/mL
same,Enhancement Factor for docetaxel,"[3]; Panc-1, A3 antagonist 1 μg/ml",1.8
same,Enhancement Factor for paclitaxel,"[3]; Panc-1, A3 antagonist 1 μg/ml",1.9
same,IC50,[4]; [12],19000 ± 1200 ng/mL
same,Enhancement Factor for docetaxel,"[4]; SKMES, A3 antagonist 1 μg/ml",3.6
same,Enhancement Factor for irinotecan HCL,"[4]; SKMES, A3 antagonist 1 μg/ml",2.1
same,Enhancement Factor for paclitaxel,"[4]; SKMES, A3 antagonist 1 μg/ml",4.1
same,Enhancement Factor for vinblastine,"[4]; SKMES, A3 antagonist 1 μg/ml",1.2
same,"colony formation, % of DMSO control","A375 melanoma cells; 10 μM alone, 7 days",59%
same,colony formation predicted by geometrical combination,A375 melanoma cells; MRE 3008F20 10 μM plus paclitaxel 0.75 ng/ml,38%
same,paclitaxel ECMAX with A3 antagonist,"A375 cells [5]; A375, MRE3008F20 10 μM",3.04 ± 0.32 ng/mL
same,vindesine ECMAX with A3 antagonist,"A375 cells [5]; A375, MRE3008F20 10 μM",1.66 ± 0.20 nM
same,EC50,"A375 cells [5]; A-375, read-out: SEC50 (dose inducing 50% of the enhancing activity to vindesine)",550 ± 60 nM
same,paclitaxel ECMAX with A3 antagonist,HeL023 cells; MRE3008F20 10 μM,3.19 ± 0.30 ng/mL
same,vindesine ECMAX with A3 antagonist,HeL023 cells; MRE3008F20 10 μM,1.05 ± 0.09 nM
same,paclitaxel ECMAX with A3 antagonist,Jurkat cells; MRE3008F20 10 μM,2.29 ± 0.31 ng/mL
same,paclitaxel ECMAX with A3 antagonist,NCTC2544 cells; MRE3008F20 10 μM,2.55 ± 0.24 ng/mL
same,vindesine ECMAX with A3 antagonist,NCTC2544 cells; MRE3008F20 10 μM,1.34 ± 0.15 nM
same,inhibition of P-gp activity (in words),[6],near total P-gp inhibition; also recorded: strong inhibitors of P-gp activity
same,blockade of P-gp mediated Rh123 transport (in words),"[7]; 10 μM, FRES comparable to FMAX",completely blockade of P-gp mediated Rh123 transport
N#CC(=C(/N)Sc1ccccc1N)/C(C#N)=C(\N)Sc1ccccc1N [U0126],effect on MRE 3008F20 blockade of P-gp (in words),"[7]; U0126 30 μM for 30 minutes, then MRE3008F20 10 μM",failed to prevent MRE 3008F20 blockade of P-gp
same,effect on G2/M accumulation rate of paclitaxel or vindesine alone (in words),"A375 cells [8]; PD98059 20 μM, SB203580 1 μM",did not alter
same,prevention of MRE3008F20-induced accumulation in G2/M,A375 cells [8]; in presence of paclitaxel,23±5%
same,prevention of MRE3008F20-induced accumulation in G2/M,A375 cells [8]; in presence of vindesine 1 nM,48±5%
same,reduction of apoptosis induced by paclitaxel,"A375 cells [8]; paclitaxel 25 ng/ml, PD98059 20 μM, SB203580 1 μM",73±10%
"CC(=O)O[C@@]12CO[C@@H]1C[C@H](O)[C@@]1(C)C(=O)[C@H](O)C3=C(C)[C@@H](OC(=O)[C@H](O)[C@@H](NC(=O)OC(C)(C)C)c4ccccc4)C[C@@](O)([C@@H](OC(=O)c4ccccc4)[C@H]21)C3(C)C [docetaxel, reference compound]",IC50,[1]; Homo sapiens,0.2 ± 0.07 ng/mL
same,IC50,[2]; [10],0.24 ± 0.05 ng/mL
same,IC50,"[2]; Homo sapiens, HT29, docetaxel 0.00001-0.005 μg/ml, alone, read-out: IC50 of docetaxel, A3 antagonist none",0.018 ng/mL
same,IC50,"[3]; Homo sapiens, Panc-1, docetaxel 0.00001-0.005 μg/ml, alone, read-out: IC50 of docetaxel, A3 antagonist none",0.68 ng/mL
same,IC50,[3]; [11],0.37 ± 0.31 ng/mL
same,IC50,"[4]; Homo sapiens, SKMES, docetaxel 0.00001-0.005 μg/ml, alone, read-out: IC50 of docetaxel, A3 antagonist none",0.47 ng/mL
same,IC50,[4]; [12],0.84 ± 0.37 ng/mL
same,"acute hypersensitivity reaction, % of patients",[9],13%
same,"severe hypersensitivity reaction, % of patients",[9],1.2%
CC[C@]1(O)C[C@@H]2CN(CCc3c([nH]c4ccccc34)[C@@](C(=O)OC)(c3cc4c(cc3OC)N(C)[C@H]3[C@@](O)(C(N)=O)[C@H](O)[C@]5(CC)C=CCN6CC[C@]43[C@@H]65)C2)C1 [vindesine],"vindesine ECMAX (sub-G1, maximal apoptosis)","A375 cells [5]; A375, DMSO (no antagonist)",3.54 ± 0.42 nM
same,EC50,"A375 cells [5]; A-375, 24 h, read-out: vindesine EC50 (G2/M accumulation)",1.9 ± 0.2 nM
same,vindesine ECMAX (sub-G1),HeL023 cells; DMSO (no antagonist),33.11 ± 4.02 nM
same,EC50,HeL023 cells; [13],25.8 ± 3.25 nM
same,EC50,Jurkat cells; [13],0.93 ± 0.08 nM
same,EC50,NCTC2544 cells; [13],0.89 ± 0.08 nM
same,vindesine ECMAX (sub-G1),NCTC2544 cells; DMSO (no antagonist),2.50 ± 0.27 nM
same,EC50,PBMC blasts,1.1 ± 0.9 nM
